Test results reported in US10968214B2, “KRas G12C inhibitors” (Eli Lilly and Company, priority 2018, dated 2021).
Read-outs that look alike come from different tables or passages of the source.

What was measured:
[1] = system: Calu-1; test: Combination 4 day growth assay (Cell TiterGlo), Calu-1; format: cell-based; conditions: Homo sapiens, Calu-1, 96 h, single treatment, read-out: Absolute IC50
Procedure: Cell lines for this study are obtained from ATCC and grown under ATCC recommended conditions, except for LXFA-983L, which is obtained from Oncotest/Charles Rivers Laboratories, Wilmington, Mass. and D122-96, which is obtained from L. Eisenbach (Weizman Institute of Science, Rehovot, Israel)—both grown under recommended conditions. […] The proliferation assay is performed as a 4 day growth assay using Cell TiterGlo® as the readout. Briefly, cells are plated in 96-well cell culture plates and allowed to adhere overnight at 37° C. The following day, cells are treated with compounds, either single treatments or combination treatments. First, the testing compounds are serially diluted in DMSO, followed by dilution into media as a 5× concentration with 1% DMSO, and finally added to cells in media to dilute to 1×. The cells are incubated at 37° C. for 4 more days. At the end of the incubation period, Cell TiterGlo® reagent is mixed and added to the wells. After 10 minutes, the luminescence is read by a Perkin Elmer Envision instrument. Absolute IC50 values generated by a 4-parameter logistics model for the single and combination treatments are generated, followed by combination indexes for each combination treatment and cell line. The combination IC50 values are adjusted based on the total concentration of each compound when added together. […] The combination index (CI) measures the degree to which the potency of a combination therapy differs from the expected-if-additive potency and is based on the Loewe definition of additivity.
[formula] Where • CAy and CBy are the concentrations of therapies A and B that produce an effect, y, when given in combination • ICAy and ICBy are the concentrations of A and B that produce an effect, y, when given individually The biological interpretation of the combination index is as follows: synergistic if the combination index <0.5, additive if the combination index is between 0.5 and 2, and antagonistic if the combination index is >2.

[2] = system: H2030 xenograft; test: Anti-tumor growth activity, H2030 lung xenograft; format: in vivo; conditions: 28 Day, negative = regression
[3] = system: LU-99; test: CellTiterGlo Cell Proliferation Assay, LU-99; format: cell-based; conditions: Homo sapiens, KRas G12C, Lung, 96 hr
Procedure: A panel of tumor cell lines harboring KRas G12C or other KRas mutations are collected (Table 6). All cell lines are from ATCC or other sources indicated.
Typically cells are cultured in RPMI1640 or Dulbecco's modified Eagle's medium (DMEM, GIBCO) supplemented with 10% FBS (GIBCO, Invitrogen). For 2D culture cells (4×10^3/well) maintained in growth medium described above, are plated onto 96 well tissue culture plates Corning® Cat. 3603) a day before the treatment. For 3D culture 8000 cells/well are seeded onto 96 well ultra-low attachment tissue culture plates (Corning, #3474). The cells are treated compound for 96 hr, and then are analyzed for viability using the CellTiterGlo® Luminescent Cell Viability Assay® (Promega #G7572 for 2D and Promega #G9683 for 3D cultures) according to manufacturer's instructions and an EnVision™ plate reader. Nonlinear regression and sigmoidal dose-response curves are used to calculate the half maximal inhibitory concentration (IC50) with GraphPad Prism 4® software.

- IC50 [1]: 14.5 nM
Compound: C=CC(=O)N1CCN(c2ncnc3c(F)c(-c4ccc(F)c5sc(N)nc45)c(Cl)cc23)CC1 [Example 1, 1-{4-[7-(2-Amino-7-fluoro-1,3-benzothiazol-4-yl)-6-chloro-8-fluoroquinazolin-4-yl]piperazin-1-yl}prop-2-en-1-one]
- Tumor Growth Inhibition (%) or Regression (−%) ([2]; 15 mg/kg BID): 82%
- Tumor Growth Inhibition (%) or Regression (−%) ([2]; 30 mg/kg BID): 91.9%
- Tumor Growth Inhibition (%) or Regression (−%) ([2]; 30 mg/kg QD): 75.1%
- IC50 ([3]; read-out: IC50 (μM) in 2 D cell proliferation): 1.57 µM
- IC50 ([3]; read-out: IC50 (μM) in 3 D spheroid cell proliferation): 0.659 µM
